The source made the active and inactive calls.
Tests used:
Vero = Vero cell cytotoxicity, cytotoxicity control for flavivirus capping enzyme inhibitors (AID 588742); format: functional; conditions: Chlorocebus sabaeus
[1] = biological target: T1, Histone-lysine N-methyltransferase NSD2 (Homo sapiens, UniProt O96028); format: biochemical
T1 sequence (O96028 whole entry): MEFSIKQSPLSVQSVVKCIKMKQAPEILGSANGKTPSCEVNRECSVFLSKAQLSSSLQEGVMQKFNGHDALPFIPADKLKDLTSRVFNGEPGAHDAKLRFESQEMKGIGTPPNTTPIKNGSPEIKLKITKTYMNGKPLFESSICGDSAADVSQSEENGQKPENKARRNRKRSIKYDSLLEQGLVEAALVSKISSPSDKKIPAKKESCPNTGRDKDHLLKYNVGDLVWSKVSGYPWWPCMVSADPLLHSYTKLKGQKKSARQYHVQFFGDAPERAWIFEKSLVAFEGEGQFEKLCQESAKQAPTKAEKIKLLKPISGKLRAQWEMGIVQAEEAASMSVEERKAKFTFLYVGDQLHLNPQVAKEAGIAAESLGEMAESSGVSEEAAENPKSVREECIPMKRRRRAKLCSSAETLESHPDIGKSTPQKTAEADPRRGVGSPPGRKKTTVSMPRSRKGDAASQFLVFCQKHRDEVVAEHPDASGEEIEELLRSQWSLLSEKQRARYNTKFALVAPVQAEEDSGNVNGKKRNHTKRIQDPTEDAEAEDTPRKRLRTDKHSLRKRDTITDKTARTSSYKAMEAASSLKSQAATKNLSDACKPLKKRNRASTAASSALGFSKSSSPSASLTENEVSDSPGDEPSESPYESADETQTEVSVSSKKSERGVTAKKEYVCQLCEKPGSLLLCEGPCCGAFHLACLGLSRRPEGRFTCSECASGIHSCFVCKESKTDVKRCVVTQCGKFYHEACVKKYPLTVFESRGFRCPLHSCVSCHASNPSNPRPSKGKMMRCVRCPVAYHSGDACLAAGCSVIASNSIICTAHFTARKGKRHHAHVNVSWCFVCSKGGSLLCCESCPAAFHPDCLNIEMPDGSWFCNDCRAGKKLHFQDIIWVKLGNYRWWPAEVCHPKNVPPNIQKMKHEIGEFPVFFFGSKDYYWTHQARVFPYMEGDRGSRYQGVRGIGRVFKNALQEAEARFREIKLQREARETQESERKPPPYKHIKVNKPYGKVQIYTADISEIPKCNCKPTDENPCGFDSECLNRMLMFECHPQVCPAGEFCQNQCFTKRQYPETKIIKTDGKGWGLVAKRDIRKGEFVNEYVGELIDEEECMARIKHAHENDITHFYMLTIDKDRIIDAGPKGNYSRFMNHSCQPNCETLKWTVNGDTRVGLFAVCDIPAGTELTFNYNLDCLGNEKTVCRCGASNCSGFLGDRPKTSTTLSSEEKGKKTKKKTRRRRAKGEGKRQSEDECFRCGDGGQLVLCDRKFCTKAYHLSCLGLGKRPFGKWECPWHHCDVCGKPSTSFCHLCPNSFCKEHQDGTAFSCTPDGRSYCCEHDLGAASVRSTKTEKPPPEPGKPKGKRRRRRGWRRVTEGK

[2] = biological target: 5'-AMP-activated protein kinase catalytic subunit alpha-1 (Homo sapiens, UniProt Q13131); format: functional
[3] = biological target: Testis-specific serine/threonine-protein kinase 2 (Homo sapiens, UniProt Q96PF2); format: functional;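 further: part of the Navigating the Kinome panel, target entry STK22B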
[4] = biological target: MAP kinase-activated protein kinase 5 (Homo sapiens, UniProt Q8IW41); format: functional;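 further: measured as one member of a kinome panel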
[5] = biological target: Tyrosine-protein kinase Blk (Homo sapiens, UniProt P51451); format: functional;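 further: obtained as one member of a kinome-wide kinase assay panel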
[6] = biological target: Homeodomain-interacting protein kinase 2 (Homo sapiens, UniProt Q9H2X6); format: functional;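 further: measured within a kinome-wide kinase profiling panel, HIPK2 being one panel member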
[7] = biological target: Mitogen-activated protein kinase kinase kinase 20 (Homo sapiens, UniProt Q9NYL2); format: functional
Sequence of Mitogen-activated protein kinase kinase kinase 20 (Q9NYL2 whole entry): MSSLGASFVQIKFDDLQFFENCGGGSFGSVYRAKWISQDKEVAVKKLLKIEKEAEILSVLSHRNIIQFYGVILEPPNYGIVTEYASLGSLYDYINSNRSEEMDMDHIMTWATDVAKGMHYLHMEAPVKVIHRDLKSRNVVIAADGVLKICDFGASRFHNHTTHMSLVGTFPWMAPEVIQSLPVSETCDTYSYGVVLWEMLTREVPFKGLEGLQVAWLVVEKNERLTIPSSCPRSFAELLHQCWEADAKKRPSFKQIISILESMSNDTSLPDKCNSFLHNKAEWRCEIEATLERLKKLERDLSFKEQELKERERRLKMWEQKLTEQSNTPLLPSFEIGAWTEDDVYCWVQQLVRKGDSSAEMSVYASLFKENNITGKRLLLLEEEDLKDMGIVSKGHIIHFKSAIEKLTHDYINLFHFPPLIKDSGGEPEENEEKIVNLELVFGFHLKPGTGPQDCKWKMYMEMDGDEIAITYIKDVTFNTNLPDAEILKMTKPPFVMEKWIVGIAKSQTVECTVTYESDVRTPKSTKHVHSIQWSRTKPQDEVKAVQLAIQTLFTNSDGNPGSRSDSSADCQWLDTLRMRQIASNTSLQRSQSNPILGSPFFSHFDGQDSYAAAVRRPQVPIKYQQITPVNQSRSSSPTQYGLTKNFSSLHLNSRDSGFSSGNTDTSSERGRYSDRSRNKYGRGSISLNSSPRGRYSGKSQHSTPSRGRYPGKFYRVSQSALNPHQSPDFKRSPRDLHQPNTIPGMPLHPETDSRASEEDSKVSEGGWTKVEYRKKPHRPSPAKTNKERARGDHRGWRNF

[8] = biological target: Tyrosine-protein kinase Srms (Homo sapiens, UniProt Q9H3Y6); format: functional;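 further: SRMS measured as one member of a kinome-wide kinase profiling panel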
[9] = biological target: Serine/threonine-protein kinase DCLK1 (Homo sapiens, UniProt O15075); format: functional;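 further: affinity for DCLK1 (listed as DCAMKL1) measured as one member of a kinome-wide kinase profiling panel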
[10] = biological target: STE20-like serine/threonine-protein kinase (Homo sapiens, UniProt Q9H2G2); format: functional
Sequence of STE20-like serine/threonine-protein kinase (Q9H2G2 whole entry): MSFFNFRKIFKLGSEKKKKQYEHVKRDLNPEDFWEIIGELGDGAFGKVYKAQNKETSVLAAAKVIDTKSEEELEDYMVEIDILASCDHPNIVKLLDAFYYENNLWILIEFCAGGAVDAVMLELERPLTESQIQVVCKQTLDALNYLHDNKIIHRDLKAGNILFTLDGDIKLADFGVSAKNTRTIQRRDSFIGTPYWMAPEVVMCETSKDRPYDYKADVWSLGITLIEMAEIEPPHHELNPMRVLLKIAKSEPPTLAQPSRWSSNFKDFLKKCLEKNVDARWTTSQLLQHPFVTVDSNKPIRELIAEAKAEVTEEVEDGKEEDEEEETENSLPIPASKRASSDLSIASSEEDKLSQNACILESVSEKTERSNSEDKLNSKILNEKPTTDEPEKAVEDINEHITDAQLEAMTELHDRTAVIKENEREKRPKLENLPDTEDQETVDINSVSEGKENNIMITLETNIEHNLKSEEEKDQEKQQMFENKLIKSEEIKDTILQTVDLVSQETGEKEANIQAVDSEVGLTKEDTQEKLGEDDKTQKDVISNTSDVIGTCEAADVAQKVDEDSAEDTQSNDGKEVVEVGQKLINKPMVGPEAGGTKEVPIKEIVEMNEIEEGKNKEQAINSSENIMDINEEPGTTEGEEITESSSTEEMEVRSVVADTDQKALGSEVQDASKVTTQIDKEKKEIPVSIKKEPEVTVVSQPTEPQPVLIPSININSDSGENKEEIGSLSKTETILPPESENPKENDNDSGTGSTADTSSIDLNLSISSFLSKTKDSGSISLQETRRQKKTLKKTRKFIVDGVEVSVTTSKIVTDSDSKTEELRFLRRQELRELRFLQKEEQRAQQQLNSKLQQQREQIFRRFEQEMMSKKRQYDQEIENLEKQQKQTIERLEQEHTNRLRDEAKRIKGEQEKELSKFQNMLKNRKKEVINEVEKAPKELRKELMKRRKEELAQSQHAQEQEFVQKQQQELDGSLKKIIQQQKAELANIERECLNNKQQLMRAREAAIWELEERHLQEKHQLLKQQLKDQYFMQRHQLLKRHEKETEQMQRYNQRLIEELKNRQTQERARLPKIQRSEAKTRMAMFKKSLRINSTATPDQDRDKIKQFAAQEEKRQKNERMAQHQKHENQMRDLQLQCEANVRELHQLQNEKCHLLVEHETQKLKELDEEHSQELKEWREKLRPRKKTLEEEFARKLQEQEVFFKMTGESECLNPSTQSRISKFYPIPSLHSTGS

[11] = biological target: Receptor tyrosine-protein kinase erbB-4 (Homo sapiens, UniProt Q15303); format: functional;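 further: ERBB4 member of a kinome-wide kinase profiling panel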
Sequence of Receptor tyrosine-protein kinase erbB-4 (Q15303 whole entry): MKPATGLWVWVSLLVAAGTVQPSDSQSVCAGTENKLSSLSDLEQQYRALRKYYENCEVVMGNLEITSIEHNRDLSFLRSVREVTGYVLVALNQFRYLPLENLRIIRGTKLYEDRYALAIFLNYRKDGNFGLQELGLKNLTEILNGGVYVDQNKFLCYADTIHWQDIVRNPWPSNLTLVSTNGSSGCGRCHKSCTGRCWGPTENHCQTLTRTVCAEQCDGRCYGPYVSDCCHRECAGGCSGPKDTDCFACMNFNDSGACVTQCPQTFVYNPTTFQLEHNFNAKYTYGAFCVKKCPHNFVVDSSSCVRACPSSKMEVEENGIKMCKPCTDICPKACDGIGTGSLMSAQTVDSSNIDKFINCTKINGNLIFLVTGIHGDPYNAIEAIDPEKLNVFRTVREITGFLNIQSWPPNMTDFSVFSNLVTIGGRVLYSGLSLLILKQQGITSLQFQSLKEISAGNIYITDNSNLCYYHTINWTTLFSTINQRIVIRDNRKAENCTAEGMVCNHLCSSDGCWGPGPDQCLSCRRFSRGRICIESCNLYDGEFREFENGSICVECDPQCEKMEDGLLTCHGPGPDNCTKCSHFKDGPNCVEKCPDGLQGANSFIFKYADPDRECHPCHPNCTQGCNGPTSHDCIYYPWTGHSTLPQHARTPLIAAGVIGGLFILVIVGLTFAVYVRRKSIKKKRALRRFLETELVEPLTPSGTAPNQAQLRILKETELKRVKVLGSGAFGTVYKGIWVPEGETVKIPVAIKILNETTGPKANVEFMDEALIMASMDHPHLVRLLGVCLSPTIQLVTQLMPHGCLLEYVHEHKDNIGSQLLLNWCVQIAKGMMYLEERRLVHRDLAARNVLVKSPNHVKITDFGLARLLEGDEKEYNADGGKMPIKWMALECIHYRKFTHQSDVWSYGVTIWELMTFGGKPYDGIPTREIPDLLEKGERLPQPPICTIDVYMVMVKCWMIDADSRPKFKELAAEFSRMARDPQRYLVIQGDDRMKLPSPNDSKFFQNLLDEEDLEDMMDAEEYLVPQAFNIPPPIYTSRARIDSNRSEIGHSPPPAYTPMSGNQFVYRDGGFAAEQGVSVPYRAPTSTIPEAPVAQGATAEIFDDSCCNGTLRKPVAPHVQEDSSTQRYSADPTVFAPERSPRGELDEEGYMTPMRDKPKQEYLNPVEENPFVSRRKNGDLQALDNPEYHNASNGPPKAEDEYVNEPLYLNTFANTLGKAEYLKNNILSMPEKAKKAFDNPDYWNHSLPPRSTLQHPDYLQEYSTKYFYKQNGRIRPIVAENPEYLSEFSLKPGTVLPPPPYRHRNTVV

[12] = biological target: Serine/threonine-protein kinase MRCK alpha (Homo sapiens, UniProt Q5VT25); format: functional
Sequence of Serine/threonine-protein kinase MRCK alpha (Q5VT25 whole entry): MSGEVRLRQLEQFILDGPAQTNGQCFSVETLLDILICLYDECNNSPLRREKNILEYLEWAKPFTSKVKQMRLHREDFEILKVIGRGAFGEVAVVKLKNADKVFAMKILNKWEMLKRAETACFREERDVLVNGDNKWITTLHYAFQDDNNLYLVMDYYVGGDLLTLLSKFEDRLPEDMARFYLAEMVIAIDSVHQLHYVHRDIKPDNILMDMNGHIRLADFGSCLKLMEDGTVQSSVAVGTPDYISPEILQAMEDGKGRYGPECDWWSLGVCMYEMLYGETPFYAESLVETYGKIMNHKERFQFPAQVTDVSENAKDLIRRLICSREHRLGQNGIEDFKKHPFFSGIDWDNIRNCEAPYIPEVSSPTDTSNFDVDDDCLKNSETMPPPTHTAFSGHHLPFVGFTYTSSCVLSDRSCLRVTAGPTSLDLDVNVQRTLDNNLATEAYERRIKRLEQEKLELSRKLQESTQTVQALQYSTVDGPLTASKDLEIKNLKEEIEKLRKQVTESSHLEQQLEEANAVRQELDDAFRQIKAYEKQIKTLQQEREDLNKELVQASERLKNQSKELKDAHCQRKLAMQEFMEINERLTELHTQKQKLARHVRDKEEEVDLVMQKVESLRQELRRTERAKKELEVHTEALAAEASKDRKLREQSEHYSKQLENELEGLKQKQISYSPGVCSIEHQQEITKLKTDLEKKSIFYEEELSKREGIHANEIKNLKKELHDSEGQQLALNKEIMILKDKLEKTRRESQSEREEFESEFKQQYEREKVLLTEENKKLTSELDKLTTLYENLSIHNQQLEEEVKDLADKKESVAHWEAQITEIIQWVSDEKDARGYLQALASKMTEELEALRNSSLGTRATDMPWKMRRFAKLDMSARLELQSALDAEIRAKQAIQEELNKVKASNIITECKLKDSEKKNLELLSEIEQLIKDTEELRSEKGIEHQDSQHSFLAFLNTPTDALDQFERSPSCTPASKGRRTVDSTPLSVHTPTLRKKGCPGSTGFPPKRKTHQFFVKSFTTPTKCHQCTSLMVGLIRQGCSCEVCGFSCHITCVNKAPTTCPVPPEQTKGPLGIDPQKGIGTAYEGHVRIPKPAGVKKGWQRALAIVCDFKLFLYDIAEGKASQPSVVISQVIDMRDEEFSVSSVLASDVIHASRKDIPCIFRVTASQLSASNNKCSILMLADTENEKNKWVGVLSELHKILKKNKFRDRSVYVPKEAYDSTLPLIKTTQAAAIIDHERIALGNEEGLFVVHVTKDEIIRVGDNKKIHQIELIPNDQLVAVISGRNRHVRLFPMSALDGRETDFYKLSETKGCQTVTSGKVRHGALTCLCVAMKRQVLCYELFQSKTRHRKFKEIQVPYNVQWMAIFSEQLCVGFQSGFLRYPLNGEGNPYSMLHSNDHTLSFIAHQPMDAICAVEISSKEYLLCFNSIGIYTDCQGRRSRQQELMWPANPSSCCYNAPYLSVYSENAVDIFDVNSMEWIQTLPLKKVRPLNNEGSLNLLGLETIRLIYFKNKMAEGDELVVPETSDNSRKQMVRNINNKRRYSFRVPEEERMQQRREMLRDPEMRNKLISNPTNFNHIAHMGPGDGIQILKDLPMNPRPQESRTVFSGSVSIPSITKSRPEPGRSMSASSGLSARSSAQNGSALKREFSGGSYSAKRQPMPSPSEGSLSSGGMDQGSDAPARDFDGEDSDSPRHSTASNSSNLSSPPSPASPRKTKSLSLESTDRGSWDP

[13] = biological target: Tyrosine-protein kinase FRK (Homo sapiens, UniProt P42685); format: functional;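 further: FRK tested as one member of a kinome panel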
Aurora kinase A = biological target: T2, Aurora kinase A (Homo sapiens, UniProt O14965); format: functional;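 further: value from the Navigating the Kinome kinase panel profiling, panel entry STK6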
T2 sequence (O14965 whole entry): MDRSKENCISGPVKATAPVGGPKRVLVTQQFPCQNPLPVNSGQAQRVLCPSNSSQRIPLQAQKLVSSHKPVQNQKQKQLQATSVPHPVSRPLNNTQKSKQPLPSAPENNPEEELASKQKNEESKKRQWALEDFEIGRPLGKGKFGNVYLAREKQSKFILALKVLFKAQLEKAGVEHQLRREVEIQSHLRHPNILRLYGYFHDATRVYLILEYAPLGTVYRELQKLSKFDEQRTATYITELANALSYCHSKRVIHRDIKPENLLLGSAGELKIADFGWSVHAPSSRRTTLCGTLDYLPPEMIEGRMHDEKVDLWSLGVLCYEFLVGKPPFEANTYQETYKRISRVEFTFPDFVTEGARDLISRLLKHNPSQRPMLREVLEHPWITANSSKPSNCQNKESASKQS

Structure (SMILES) | CC50 (Vero) | AC50 [1] | Ki [2] | Ki [3] | Ki [4] | Ki [5] | Ki [6] | Ki [7] | Ki [8] | Ki [9] | Ki [10] | Ki [11] | Ki [12] | Ki [13] | Ki (Aurora kinase A)
O=C(O)c1ccc(NC2=C(Cl)C(=O)c3ccccc3C2=O)cc1 | 28.3 µM (active) | – | – | – | – | – | – | – | – | – | – | – | – | – | –
CCOC(=O)c1c2c(n(Cc3ccccc3)c1C)C(=O)C(=O)c1ccccc1-2 | – | 0.263 µM (active) | – | – | – | – | – | – | – | – | – | – | – | – | –
Cc1ccc2nccc(NC(=O)Nc3cccc(C(F)(F)F)n3)c2c1 | – | – | > 2.51 µM (inactive) | > 1.58 µM (inactive) | > 1.58 µM (inactive) | > 1.58 µM (inactive) | 0.794 µM (active) | > 7.94 µM (inactive) | > 1.58 µM (inactive) | > 10 µM (inactive) | > 10 µM (inactive) | > 3.98 µM (inactive) | > 10 µM (inactive) | 0.1 µM (active) | –
Cc1nn(C)c2sc3c(=O)[nH]cnc3c12 | – | – | – | – | – | – | – | – | – | – | – | – | – | – | > 63.1 µM (inactive)
Cc1c(/N=C2\C=CC(=O)c3ccccc32)c(=O)n(-c2ccccc2)n1C | 20.6 µM (active) | 2.43 µM (active) | – | – | – | – | – | – | – | – | – | – | – | – | –
COc1cc2c(cc1F)C(c1ccccc1Cl)=Nc1c(n[nH]c1C)N2 [RG-1530] | – | – | 0.631 µM (active) | 1 µM (active) | > 1.58 µM (inactive) | 0.0631 µM (active) | > 3.16 µM (inactive) | > 7.94 µM (inactive) | > 1.58 µM (inactive) | > 10 µM (inactive) | 0.0398 µM (active) | 2 µM (active) | > 10 µM (inactive) | 0.0794 µM (active) | 0.0251 µM (active)

Source: ChEMBL document CHEMBL1201862, “PubChem BioAssay data set” (2004)
